Assay results reported in patent US10632127B2, “Targeted notch pathway inhibitors” (Hoffmann-La Roche Inc., priority 2015, dated 2020).
pIC50: −log10 of the molar value.

Key:
[1] = target: Notch signal transduction pathway; assay: In vitro Notch signal transduction pathway activity assay (DR215/F2 luciferase reporter); type: cell-based, human; conditions: for IC50 for blockade of the Notch pathway, range in words: DR215/F2 cell reporter assay; for pIC50: Homo sapiens, 215/F2 reporter cell line, 19 h, mean of at least 3 experiments
Description: The compounds were dissolved in dimethyl sulfoxide (DMSO) at 10 mM stock solution, aliquoted and stored at −4° C. until use, then diluted in PBS or cell culture medium. In the experimental settings, controls containing increasing concentrations of DMSO, corresponding to the amount of DMSO of the diluted compounds were always included. For in vivo experiments, the compounds were dissolved in 0.9% NaCl, incubated 30 min at 40° C. and sonicated for 5 min.
The requirement of proteolytic activation of the prodrugs to inhibit Notch cleavage by the γ-secretase, was investigated using a reporter assay (Table 3). The DR215/F2 cell line expresses a reporter construct designed to monitor the activity of the Notch signal transduction pathway. The DR215/F2 cell line 39 carries two transgenes: the firefly luciferase reporter gene expressed under the control of the Gal4 promoter and the human Notch1 activator gene fused with the yeast Gal4 transcription factor. This assay confirmed that the prodrugs were able to inhibit γ-secretase and the activation of the Notch pathway. The DR215/F2 cell reporter assay was also used to determine the IC50 for blockade of the Notch pathway by all the compounds designed and prepared.
The values were determined using the 215/F2 reporter cell line for Notch activation by the γ-secretase. All values are the mean of at least 3 experiments.
The preparation and characterization of rat brain-derived EC219 endothelial cells have been described in Juillerat-Jeanneret, L. et al. In Vitro Cell. Dev. Biol. 1992, 28A, 537-543. These cells express high levels of APA and γ-GT activities and can be used for determining kinetics in living cells, and were chosen as APA- and γ-GT-positive representative cell models. EC219 cells were grown in DMEM medium containing 1 g/l glucose, 10% heat-inactivated fetal calf serum (FCS, EuroClone, UK) supplemented with 100 U/mL penicillin and 100 μg/mL streptomycin (P/S) on uncoated cell culture plastic ware. The HEK293 and HK2 human kidney cells are available from the ATCC (American Tissue Culture Collection, Manassas, Va., USA). HEK293 cells were grown on uncoated cell culture plastic ware in Iscove modified Dulbecco medium (IMDM, Life Technologies) containing 10% FCS and P/S. HK2 cells were grown on uncoated cell culture plastic ware in DMEM/F-12 GlutaMAX medium (Gibco) containing 5% FCS, P/S, 1% ITS (1.0 mg/ml bovine insulin, 0.55 mg/ml human transferrin and 0.5 μg/ml sodium selenite, Sigma-Aldrich) and 5 ng/ml hydrocortisone. The human HEK293-derived DR215/F2 embryonic kidney cell line, stably transfected with pFR Luc and APP-Notch Gal (plasmid DR215) as described in WO 2006/061136 A2 and Brockhaus, M. Neuroreport 1998 9, 1481-1486, were maintained using IMDM with 10% FCS supplemented with P/S and kept under double-selection with 150 μg/ml G-418 and 50 μg/ml hygromycin B on coated (1:100 Poly-L-lysine) cell culture plastic ware. In this assay, the Notch-Gal4 protein is bound to the cell membrane via its trans-membrane domain. The Notch intracellular domain is released by proteolytic cleavage mediated by the γ-secretase and moves to the cell nucleus where it activates the reporter luciferase gene transcript. Inhibition of γ-secretase thus decreases luciferase activity. Briefly, cultures were grown in 96-well microplates to 80% confluence; the cells were then washed in PBS and exposed to decreasing concentrations of the γ-secretase-inhibitor analogues in complete IMDM culture medium without red phenol at 37° C. for 19 h. Then 75 μl of supernatant from each well was removed and the luciferase activity was determined by adding 25 μl of Steady-Glo luciferase assay reagent (Promega).

[2] = system: Notch1 and cleaved Notch1; assay: Immunohistochemistry of Notch1 and cleaved Notch1 in kidneys of mice exposed to aristolochic acid; type: in vivo, mouse; conditions: for Notch1 and cleaved Notch1 in kidneys (immunohistochemistry): AA-exposed mice, 11a 10 mg/kg b.i.d. or 13a 30 mg/kg b.i.d. i.p., day 7, versus AA-treated mice without prodrug; for modification of Notch or cleaved Notch levels in the kidneys: healthy wild-type mice, compound injected alone (results not shown)
Description: FIG. 3. Expression of Notch1 and active cleaved Notch1 determined by immuno-histochemistry in kidneys of mice exposed to aristolochic acid (AA) and treated either with the amine-SecrI (11a) or with Ac-γ-Glu-SecrI (13a).
Sections (7 μm) of snap-frozen kidneys were exposed to an anti-γ-secretase-cleaved Notch (cNotch) antibody, followed by the […] staining. Immunostaining is visualized as dark precipitate.
All experiments with animals were conducted in accordance with federal and local regulation at the respective study location. Kidney injury was induced by intraperitoneal (i.p). injection of aristolochic acid (AA, Sigma-Aldrich, 1×5 mg/kg) in 10 weeks old BALB/c male mice. The γ-secretase inhibitors prodrugs were diluted in NaCl 0.9% and administered i.p., starting one day before the injection of AA (day −1) and then twice daily until day 6 evening (n=5 mice/experimental group). At day 7 morning (12 h after the last prodrug injection), blood was collected and the mice were sacrificed to remove the liver and both kidneys. The kidneys were cut in four fragments. One fragment was immediately frozen in liquid nitrogen, one fragment was included in OCT (Tissue-Tek, VWR International, Switzerland) and frozen, one fragment was frozen at −80° C. and one fragment was fixed in 4% paraformaldehyde and included in paraffin.
OCT-embedded frozen kidneys were cut at 7 μm. The sections were air dried, fixed for 10 min in cold (−20° C.). methanol, rinsed in PBS 0.1% Triton x-100 (PBS/Triton), and blocked for 30 min with PBS/Triton containing 5% bovine serum albumin (BSA). The rabbit anti-Notch1 antibody (D1E11, diluted 1/50) and the rabbit anti-cleaved Notch1 antibody (Val1744, diluted 1/50) were purchased from Cell Signaling, the biotinylated anti-rabbit antibody from Vector Laboratories (diluted 1/500) and streptavidin/HRP (diluted 1/500) from Dako. The primary antibodies were diluted in PBS containing 5% BSA and were incubated with the sections for 1 h at RT. Endogenous peroxidase and biotin were blocked using 3% H2O2 and Avidin/Biotin blocking kit (Vector Laboratories), respectively. The slides were rinsed with PBS/Triton three times and incubated for 1 h at RT with anti-rabbit biotin secondary antibody diluted in the same buffer as for primary antibodies. After three washes with PBS, slides were incubated with streptavidin/HRP antibody for 1 h at RT, then 3,3′diaminobenzidine (DAB, Dako) was added for 15 min. The slides were washed in distilled water, mounted in Aquamount and analyzed.
To investigate potential nephroprotective effects of Notch blockade using γ-secretase inhibition and to evaluate the effects of our enzyme-targeted prodrug strategy, we used the in vivo AA mouse model of acute renal tubular damage. […]

| SMILES | IC50 for blockade of the Notch pathway, range in words [1] | pIC50 [1] | Notch1 and cleaved Notch1 in kidneys (immunohistochemistry) [2] | modification of Notch or cleaved Notch levels in the kidneys [2] |
| --- | --- | --- | --- | --- |
| C[C@H]1Oc2ccc(F)cc2N(CCO)C(=O)[C@H]1NC(=O)[C@@](C)(O)C(=O)NCC(F)(F)C(F)(F)F [Compound 8, N-[(6R,7S)-2-Fluoro-9-(2-hydroxy-ethyl)-6-methyl-8-oxo-6,7,8,9-tetrahydro-5-oxa-9-aza-benzocyclohepten-7-yl]-2-(S)-hydroxy-2-methyl-N′-(2,2,3,3,3-pentafluoro-propyl)-malonamide] | low nanomolar range | 8.36 |  |  |
| C[C@H]1Oc2ccc(F)cc2N(CCOC(=O)NCCN)C(=O)[C@H]1NC(=O)[C@@](C)(O)C(=O)NCC(F)(F)C(F)(F)F.Cl [Compound 11a, 2-((2R,3S)-7-Fluoro-3-((S)-2-hydroxy-2-methyl-3-oxo-3-(2,2,3,3,3-pentafluoropropylamino)propanamido)-2-methyl-4-oxo-3,4-dihydrobenzo[b][1,4]oxazepin-5(2H)-yl)ethyl 2-aminoethylcarbamate hydrochloride] | low nanomolar range | 7.34 | reduced | Neither (11a) nor (13a) injected alone induced any modification |
| CC(=O)N[C@@H](CCC(=O)O)C(=O)NCCNC(=O)OCCN1C(=O)[C@@H](NC(=O)[C@@](C)(O)C(=O)NCC(F)(F)C(F)(F)F)[C@@H](C)Oc2ccc(F)cc21 [Compound 15a, (S)-4-acetamido-5-(2-((2-((2R,3S)-7-fluoro-3-((S)-2-hydroxy-2-methyl-3-oxo-3-(2,2,3,3,3-pentafluoropropylamino)propanamido)-2-methyl-4-oxo-3,4-dihydrobenzo[b][1,4]oxazepin-5(2H)-yl)ethoxy)carbonylamino)ethylamino)-5-oxopentanoic acid] | high nM range | 6.20 |  |  |
| CC(=O)N[C@@H](CCC(=O)NCCNC(=O)OCCN1C(=O)[C@@H](NC(=O)[C@@](C)(O)C(=O)NCC(F)(F)C(F)(F)F)[C@@H](C)Oc2ccc(F)cc21)C(=O)O [Compound 13a, (S)-2-acetamido-5-(2-((2-((2R,3S)-7-fluoro-3-((S)-2-hydroxy-2-methyl-3-oxo-3-(2,2,3,3,3-pentafluoropropylamino)propanamido)-2-methyl-4-oxo-3,4-dihydrobenzo[b][1,4]oxazepin-5(2H)-yl)ethoxy)carbonylamino)ethylamino)-5-oxopentanoic acid] | μM range | 5.54 | reduced | Neither (11a) nor (13a) injected alone induced any modification |
